What is called EC50 is the concentration at which the effect is half-maximal. The term melting point denotes the temperature of the solid-liquid transition.

The target in one series is T1, hPPARβ chimeric receptor (Homo sapiens, UniProt Q03181).
T1 construct: "expression plasmids encoding hPPARα, hPPARβ or mPPARγ chimeric receptors"
T1 sequence (Q03181 171-441 limits assumed): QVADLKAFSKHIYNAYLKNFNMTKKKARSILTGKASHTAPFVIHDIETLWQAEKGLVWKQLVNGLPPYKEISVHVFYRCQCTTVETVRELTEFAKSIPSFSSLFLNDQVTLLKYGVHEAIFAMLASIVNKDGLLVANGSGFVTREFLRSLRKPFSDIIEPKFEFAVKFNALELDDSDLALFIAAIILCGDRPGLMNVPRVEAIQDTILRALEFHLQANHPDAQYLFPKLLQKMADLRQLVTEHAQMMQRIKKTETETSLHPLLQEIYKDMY
As to the kind of experiment: Transient transfections assay using the HepG2 hepatoma cell line (Gal4-PPAR chimeric receptor, luciferase reporter), hPPARβ. The settings on record: HepG2 cells transiently transfected, 24 hours incubation, read-out: Hep G2-hβ EC50. The series is classed as cell-based. As for the experimental part: (§1) 1. Test A. Transient Transfections Assay using the HepG2 Hepatoma Cell Line.
(§2) HepG2 cells were transiently transfected with an expression plasmids encoding hPPARα, hPPARβ or mPPARγ chimeric receptors and a reporter containing the yeast upstream activating sequence (UAS) upstream of the viral E1B promoter controlling a luciferase reporter gene. In addition, the plasmid pRSVβ-gal was used to control for transfection efficiency. HepG2 cells were grown in DMEM supplemented with 10% FBS and […] non-essential amino acid. On the first day, cells were split into 100 mm dishes at 2.5×10^6/dish and incubated overnight at 37° C./5% CO2. On the second day the cells were transiently transfected with plasmid DNA encoding a chimeric receptor, the luciferase reporter gene; and β-gal. For each 100 mm dish, 15 μg of lucifease reporter (PG5E1b) DNA, 15 μg of Gal4-PPAR chimeric receptor DNA, and 1.5 μg of β-gal plasmid DNA were mixed with 1.4 ml of opti-MEM in the tube. 28 μl of LipoFectamine-2000 reagent was added to 1.4 ml of opti-MEM in the tube, and incubate for 5 min at RT. The diluted Lipofectamine-2000 reagent was combined with the DNA mixture, and incubate for 20 min at RT. After fresh medium was added to each 100 mm dish of cells, 2.8 ml of Lipofectamine2000-DNA mixture was added dropwise to the 100 mm dish containing 14 ml of medium, and incubate 37° C. overnight. On day three cells were trypsinized off the 100 mm dishes and re-plated on 96 well plates. Cells were plated at 2.5×10^4 cells per well in 150 μl of media and 50 μl of compound diluted by media was added. The test compound added were in the range from 50 μM to 50 pM. After addition of compounds, the plates were incubated at 37° C. for 24 hours. Subsequently cells were washed with once with 100 μl of PBS, lysed, and processed for measuring luciferase and β-gal activity using Dual-Light luciferase kit from Tropix®, according to the manufacturer's recommendations, on an EG&G Bethold MicroLumat LB96P luminometer. EC50 values were obtained using the GraphPad Prism™ program. […] Accordingly, the compounds of the present invention should find considerable therapeutic applications for hypercholesterolemia and hyperlipidemia.
(In general: A reporter such as luciferase makes a cellular process visible.)

In another series the target is T2, hPPARα chimeric receptor (Homo sapiens, UniProt Q07869).
T2 construct: "expression plasmids encoding hPPARα, hPPARβ or mPPARγ chimeric receptors"
T2 sequence (Q07869 200-468 limits assumed): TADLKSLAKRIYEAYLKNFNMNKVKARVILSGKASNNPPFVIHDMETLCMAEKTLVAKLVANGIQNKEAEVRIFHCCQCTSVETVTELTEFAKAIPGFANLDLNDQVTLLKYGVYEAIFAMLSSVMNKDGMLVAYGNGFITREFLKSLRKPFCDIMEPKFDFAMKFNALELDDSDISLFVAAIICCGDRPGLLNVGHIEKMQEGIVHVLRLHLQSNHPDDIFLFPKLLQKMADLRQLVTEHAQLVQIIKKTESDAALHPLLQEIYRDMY
As to the kind of experiment: Transient transfections assay using the HepG2 hepatoma cell line (Gal4-PPAR chimeric receptor, luciferase reporter), hPPARα. Format: cell-based. The following applies: HepG2 cells transiently transfected, 24 hours incubation, read-out: Hep G2-hα EC50. As for the experimental part: as §1, §2

For `Cc1nc(-c2ccc(C(F)(F)F)cc2)sc1CSc1ccc(OCC(=O)O)c2c1OCCC2` [Example 1, {8-[4-Methyl-2-(4-trifluoromethyl-phenyl)-thiazol-5-ylmethylsulfanyl]-chroman-5-yloxy}-acetic acid], the EC50 at hPPARβ chimeric receptor came to 187 nM.
Compound `Cc1nc(-c2ccc(C(F)(F)F)cc2)sc1CSc1ccc(OCC(=O)O)c2c1CCCC2` [Example 2, {4-[4-Methyl-2-(4-trifluoromethyl-phenyl)-thiazol-5-ylmethylsulfanyl]-5,6,7,8-tetrahydro-naphthalen-1-yloxy}-acetic acid] showed a melting point of 166 to 167 °C. The half-maximal effective concentration (EC50) at hPPARβ chimeric receptor is 52 nM. Also, the EC50 at hPPARα chimeric receptor is 2970 nM.
Compound `Cc1nc(-c2ccc(C(F)(F)F)cc2)sc1CSc1ccc(OCC(=O)O)c2ccccc12` [Example 3, {4-[4-Methyl-2-(4-trifluoromethyl-phenyl)-thiazol-5-ylmethylsulfanyl]-naphthalen-1-yloxy}-acetic acid] registered a melting point of 181 to 183 °C. In addition, at hPPARβ chimeric receptor, the EC50 amounted to 76 nM. Also, the EC50 on hPPARα chimeric receptor came to 3580 nM.
In turn, `Cc1cc(SCc2sc(-c3ccc(C(F)(F)F)cc3)nc2C)c2c(c1OCC(=O)O)CCCO2` [Example 4, 2-[6-methyl-8-({4-methyl-2-[4-(trifluoromethyl)phenyl](1,3-thiazol-5-yl)}methylthio)chroman-5-yloxy]acetic acid] displayed a melting point of 203.5 to 205.5 °C. Further, on hPPARβ chimeric receptor, the EC50 was 45 nM. The EC50 on hPPARα chimeric receptor was determined as 1760 nM.
The like results for `Cc1cc(SCc2sc(-c3ccc(C(F)(F)F)cc3)nc2C)c2c(c1OCC(=O)O)CCO2` [Example 5, 2-[5-methyl-7-({4-methyl-2-[4-(trifluoromethyl)phenyl](1,3-thiazol-5-yl)}methylthio)-2,3-dihydrobenzo[b]furan-4-yloxy]acetic acid] were, in that order, 157 to 158 °C, 0.8 nM and 52 nM.
For the compound `Cc1cc(SCc2sc(-c3ccc(C(F)(F)F)cc3)nc2C)c2c(c1OCC(=O)O)CCC2` [Example 6, {5-Methyl-7-[4-methyl-2-(4-trifluoromethyl-phenyl)-thiazol-5-ylmethylsulfanyl]-indan-4-yloxy}-acetic acid], the melting point was 184 °C. In addition, the EC50 on hPPARβ chimeric receptor was 133 nM. Besides, on hPPARα chimeric receptor, the EC50 was determined as 191 nM.

For the origin of these results see patent publication US6833380B2, “Compounds that modulate PPAR activity and methods of preparation” (Warner-Lambert Company, LLC, priority 2002, dated 2004).
